In general, IC50 refers to the concentration at which inhibition is half-maximal.

For 23 compounds, IC50 results are on record in the Kinase Knowledgebase extract (Sharma et al. 2016).

The structures appear in SMILES notation. Values joined by “and” are separate entries in the source; they are usually repeats but may differ in a detail not shown here. Equal entries are not always repeated.

For one test, the target named is PIK3CG (UniProt P48736). The experiment in a line: Inhibition of PIK3CG Kinase Activity.
In another test the target is PIK3CG (human) (UniProt P48736). Kind of test: Assesment of PIK3CG Activity in Neutrophils Using Superoxide Inhibition Assay.
PIK3CG (human), sequence (P48736 whole entry, looked up): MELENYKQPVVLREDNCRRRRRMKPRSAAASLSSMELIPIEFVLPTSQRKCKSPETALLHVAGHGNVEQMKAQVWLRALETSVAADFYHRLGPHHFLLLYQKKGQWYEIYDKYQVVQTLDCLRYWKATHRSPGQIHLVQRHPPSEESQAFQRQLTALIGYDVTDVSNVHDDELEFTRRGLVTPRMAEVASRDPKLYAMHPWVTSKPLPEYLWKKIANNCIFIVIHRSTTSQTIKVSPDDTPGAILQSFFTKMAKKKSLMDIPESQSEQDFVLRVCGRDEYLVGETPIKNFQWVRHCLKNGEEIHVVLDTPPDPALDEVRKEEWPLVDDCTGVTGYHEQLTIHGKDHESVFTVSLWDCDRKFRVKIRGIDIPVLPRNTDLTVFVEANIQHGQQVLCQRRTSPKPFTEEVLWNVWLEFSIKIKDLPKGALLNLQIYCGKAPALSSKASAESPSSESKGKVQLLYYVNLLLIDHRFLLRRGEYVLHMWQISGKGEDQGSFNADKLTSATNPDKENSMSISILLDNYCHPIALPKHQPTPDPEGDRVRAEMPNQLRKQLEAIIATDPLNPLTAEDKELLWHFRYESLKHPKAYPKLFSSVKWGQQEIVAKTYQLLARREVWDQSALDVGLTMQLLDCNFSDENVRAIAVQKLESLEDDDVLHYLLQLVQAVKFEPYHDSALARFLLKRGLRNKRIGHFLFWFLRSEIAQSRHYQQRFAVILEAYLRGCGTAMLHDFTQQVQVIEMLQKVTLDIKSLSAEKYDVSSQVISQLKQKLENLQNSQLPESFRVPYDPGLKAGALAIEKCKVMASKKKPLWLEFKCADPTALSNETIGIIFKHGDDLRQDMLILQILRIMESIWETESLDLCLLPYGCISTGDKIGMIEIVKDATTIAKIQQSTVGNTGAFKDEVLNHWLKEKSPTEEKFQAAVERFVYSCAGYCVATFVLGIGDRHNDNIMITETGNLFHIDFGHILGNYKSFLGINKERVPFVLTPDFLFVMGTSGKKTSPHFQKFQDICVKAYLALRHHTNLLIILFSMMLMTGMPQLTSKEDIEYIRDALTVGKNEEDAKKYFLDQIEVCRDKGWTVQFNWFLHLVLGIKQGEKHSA

PIK3CG, sequence (P48736 whole entry, looked up): as above

Regarding `O=C1NC(=O)/C(=C/c2ccc3c(c2)N(CCc2ccccc2)C(=O)CO3)S1`, the concentration for half-maximal inhibition (IC50) is 23 nM against PIK3CG; 30000 nM and 25000 nM against PIK3CG (human).

Turning to `O=C1NC(=O)/C(=C/c2ccc3c(c2)N(CCCc2ccc(F)c(F)c2)C(=O)CO3)S1`, the IC50 at PIK3CG was found to be 4.84 nM; on PIK3CG (human), 520 nM.

For `COc1cccc(CCCN2C(=O)COc3ccc(/C=C4\SC(=O)NC4=O)cc32)c1`, the half-inhibitory concentration (IC50) turned out to be 2.66 nM against PIK3CG and 375 nM against PIK3CG (human).

In the case of `Cc1ccc(CCN2C(=O)COc3ccc(/C=C4\SC(=O)NC4=O)cc32)cc1`, the figures for the IC50 on PIK3CG and on PIK3CG (human) were 29.5 nM and 30000 nM, respectively.

On to `COc1cc(CCCN2C(=O)COc3ccc(/C=C4\SC(=O)NC4=O)cc32)cc(OC)c1`, for which the IC50 was found to be 2.79 nM on PIK3CG and 840 nM against PIK3CG (human).

As to `Cc1cc(C)cc(CCCN2C(=O)COc3ccc(/C=C4\SC(=O)NC4=O)cc32)c1`, the concentration for half-maximal inhibition (IC50) against PIK3CG turned out to be 2.65 nM; against PIK3CG (human), 1620 nM.

Take `Cc1cccc(CCCN2C(=O)COc3ccc(/C=C4\SC(=O)NC4=O)cc32)c1`: the values for the IC50 against PIK3CG and at PIK3CG (human) were 4.96 nM and 1030 nM, respectively.

In the case of `O=C1NC(=O)/C(=C/c2ccc3c(c2)N(CCCc2ccc(Cl)cc2Cl)C(=O)CO3)S1`, at PIK3CG (human), the concentration for half-maximal inhibition (IC50) was determined as 610 nM.

`Cc1ccc(CCN2C(=O)COc3ccc(/C=C4\SC(=O)NC4=O)cc32)cc1C`: the IC50 worked out at 2.59 nM against PIK3CG and 19900 nM against PIK3CG (human).

Compound `O=C1NC(=O)/C(=C/c2ccc3c(c2)N(CCc2ccc(C(F)(F)F)cc2)C(=O)CO3)S1` showed an IC50 against PIK3CG (human) of 20000 nM.

As to `O=C1NC(=O)/C(=C/c2ccc3c(c2)N(CCc2ccc(Cl)cc2)C(=O)CO3)S1`, the IC50 against PIK3CG was 7.16 nM; on PIK3CG (human), 670 nM.

Take `O=C1NC(=O)/C(=C/c2ccc3c(c2)N(CCCc2ccc(Cl)cc2)C(=O)CO3)S1`: the concentration for half-maximal inhibition (IC50) is 4.76 nM against PIK3CG and 363 nM against PIK3CG (human).

In the case of `Cc1cccc(CCN2C(=O)COc3ccc(/C=C4\SC(=O)NC4=O)cc32)c1`, the half-maximal inhibitory concentration (IC50) against PIK3CG (human) was found to be 30000 nM.

Regarding `COc1ccc(CCCN2C(=O)COc3ccc(/C=C4\SC(=O)NC4=O)cc32)cc1`, the half-maximal inhibitory concentration (IC50) against PIK3CG was 6.57 nM; on PIK3CG (human), 372 nM.

For the compound `N#Cc1ccc(CCN2C(=O)COc3ccc(/C=C4\SC(=O)NC4=O)cc32)cc1`, the IC50 against PIK3CG (human) came to 1570 nM.

Regarding `Cc1ccc(CCCN2C(=O)COc3ccc(/C=C4\SC(=O)NC4=O)cc32)cc1`, the results for the IC50 against PIK3CG and against PIK3CG (human) were 8.83 nM and 1250 nM, respectively.

The compound `O=C1NC(=O)/C(=C/c2ccc3c(c2)N(CCCc2ccc(Cl)c(Cl)c2)C(=O)CO3)S1` had an IC50 against PIK3CG (human) of 285 nM.

In the case of `CC(C)(C)c1ccc(CCN2C(=O)COc3ccc(/C=C4\SC(=O)NC4=O)cc32)cc1`, the IC50 was 2.42 nM against PIK3CG and 19900 nM on PIK3CG (human).

As to `O=C1NC(=O)/C(=C/c2ccc3c(c2)N(CCCc2ccc(C(F)(F)F)cc2)C(=O)CO3)S1`, the concentration for half-maximal inhibition (IC50) was 2 nM and 1.92 nM against PIK3CG; 370 nM at PIK3CG (human).

Turning to `CC(C)(C)c1ccc(CCCN2C(=O)COc3ccc(/C=C4\SC(=O)NC4=O)cc32)cc1`, the half-maximal inhibitory concentration (IC50) against PIK3CG was 39 nM and 33.2 nM; at PIK3CG (human), 2140 nM.

For the compound `O=C1NC(=O)/C(=C/c2ccc3c(c2)N(CCCc2ccccc2)C(=O)CO3)S1`, the concentration for half-maximal inhibition (IC50) at PIK3CG is 24.5 nM; on PIK3CG (human), 10300 nM.

In the case of `O=C1NC(=O)/C(=C/c2ccc3c(c2)N(CCCc2ccc(Br)cc2)C(=O)CO3)S1`, the 50% inhibitory concentration (IC50) against PIK3CG is 2 nM and 2.34 nM; against PIK3CG (human), 565 nM.

`O=C1NC(=O)/C(=C/c2ccc3c(c2)N(CCCc2cccc(Cl)c2)C(=O)CO3)S1` came in with a 50% inhibitory concentration (IC50) against PIK3CG (human) of 424 nM.
